In publication PMC7290078, “Agonist bias and agonist‐dependent antagonism at corticotrophin releasing factor receptors” (Pharmacology Research & Perspectives, 2020):
No end group written: not given here.

Key:
CRF1 receptor (hCRF1α) = target: T1, CRF1 receptor (hCRF1α) (Homo sapiens, UniProt P34998); assay: ERK1/2 phosphorylation (AlphaLISA Surefire Ultra) in Cos7 cells transfected with hCRF1α; type: cell-based
T1 construct: host or cells: Cos7 cells, transient transfection (PEI), pcDNA3.0/3.1 vector
T1 sequence (P34998 24-415): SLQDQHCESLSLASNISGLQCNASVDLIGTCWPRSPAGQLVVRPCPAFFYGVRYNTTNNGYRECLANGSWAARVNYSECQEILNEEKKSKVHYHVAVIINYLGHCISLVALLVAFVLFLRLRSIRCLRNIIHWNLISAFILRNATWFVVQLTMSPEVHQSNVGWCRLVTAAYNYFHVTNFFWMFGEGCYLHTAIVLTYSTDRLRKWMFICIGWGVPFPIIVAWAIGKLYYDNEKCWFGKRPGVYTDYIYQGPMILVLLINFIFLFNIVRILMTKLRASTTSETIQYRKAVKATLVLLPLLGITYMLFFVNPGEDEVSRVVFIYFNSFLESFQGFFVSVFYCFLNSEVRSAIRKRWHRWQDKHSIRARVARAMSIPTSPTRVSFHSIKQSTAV
Source text: Plasmids containing hCRF1α and hCRF2α (GenBank accession numbers AY457172 and AY449734) were obtained from the cDNA Resource Centre (Bloomsburg University) and are referred to as CRF1 and CRF2 in this manuscript. Hemagglutinin (HA) epitope‐tagged human Calcitonin (CT) receptor (CT(a) splice variant) and myc‐tagged human RAMP1 were used as described previously. ^27 HA‐tagged human calcitonin receptor‐like receptor (CLR), N‐terminal FLAG‐tagged human RAMP3 and N‐terminal myc‐tagged human RAMP3 were a gift from Professor David Poyner (Aston University) and Professor Patrick Sexton (Monash University), respectively. N‐terminal FLAG‐tagged human RAMP2 was used as described previously. ^28 All receptors and RAMPs were cloned in pcDNA3.0 or pcDNA3.1 plasmid vectors. […]
Cos7, HEK‐293S, and HEK‐293T cells were cultured as described previously. ^28 , ^29 Cos7 cells were originally supplied by the ATCC to Associate Professor Nigel Birch (University of Auckland). […] For transfection, cells were counted (Countess CounterTM; Life Technologies) and plated at a density of 20 000 cells per well in 96‐well plates. […]
The AlphaLISA Surefire Ultra extracellular signal‐regulated kinase 1/2 (ERK1/2) phosphorylation (pERK1/2) assay kit (PerkinElmer Life and Analytical Sciences) was used to measure pERK1/2 in cell lysates after agonist stimulation. […] Samples were read using an Envision plate reader (PerkinElmer). […]

CRF2 receptor (hCRF2α) = target: T2, CRF2 receptor (hCRF2α) (Homo sapiens, UniProt Q13324); assay: cAMP accumulation (LANCE) in Cos7 cells transfected with hCRF2α, agonist stimulation; type: cell-based
T2 construct: host or cells: Cos7 cells, transient transfection (PEI), pcDNA3.0/3.1 vector
T2 sequence (Q13324 1-411): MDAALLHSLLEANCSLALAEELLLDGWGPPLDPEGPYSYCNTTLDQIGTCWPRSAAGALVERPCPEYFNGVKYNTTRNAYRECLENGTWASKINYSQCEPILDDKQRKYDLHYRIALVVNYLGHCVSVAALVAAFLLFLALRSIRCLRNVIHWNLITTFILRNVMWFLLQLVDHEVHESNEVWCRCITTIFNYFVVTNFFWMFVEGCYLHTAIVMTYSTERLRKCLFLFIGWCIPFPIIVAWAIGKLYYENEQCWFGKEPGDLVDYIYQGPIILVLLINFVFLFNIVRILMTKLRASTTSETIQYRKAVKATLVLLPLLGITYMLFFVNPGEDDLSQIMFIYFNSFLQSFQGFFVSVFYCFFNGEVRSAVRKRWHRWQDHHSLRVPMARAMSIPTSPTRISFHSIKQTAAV
Source text: Plasmids containing hCRF1α and hCRF2α (GenBank accession numbers AY457172 and AY449734) were obtained from the cDNA Resource Centre (Bloomsburg University) and are referred to as CRF1 and CRF2 in this manuscript. Hemagglutinin (HA) epitope‐tagged human Calcitonin (CT) receptor (CT(a) splice variant) and myc‐tagged human RAMP1 were used as described previously. ^27 HA‐tagged human calcitonin receptor‐like receptor (CLR), N‐terminal FLAG‐tagged human RAMP3 and N‐terminal myc‐tagged human RAMP3 were a gift from Professor David Poyner (Aston University) and Professor Patrick Sexton (Monash University), respectively. N‐terminal FLAG‐tagged human RAMP2 was used as described previously. ^28 All receptors and RAMPs were cloned in pcDNA3.0 or pcDNA3.1 plasmid vectors. All plasmid inserts were sequenced at the Centre for Genomics, Proteomics and Metabolomics (University of Auckland) and the sequences were verified prior to use.
Cos7, HEK‐293S, and HEK‐293T cells were cultured as described previously. ^28 , ^29 Cos7 cells were originally supplied by the ATCC to Associate Professor Nigel Birch (University of Auckland). HEK‐293S cells were a gift from Professor David Poyner (Aston University) and HEK‐293T cells a gift from Professor John Taylor (University of Auckland). Briefly, all cell lines were cultured in Dulbecco's Modified Eagle Medium (DMEM) supplemented with 8% heat inactivated fetal bovine serum (FBS) and maintained in a humidified incubator at 37°C with 5% CO2. For transfection, cells were counted (Countess CounterTM; Life Technologies) and plated at a density of 20 000 cells per well in 96‐well plates. The cells were transiently transfected 48 hours prior to assaying using polyethylenimine (PEI), as described previously. ^28 , ^29 In all experiments a total of 0.25 μg DNA was transfected per well. In the majority of experiments 0.25 μg DNA of receptor‐containing plasmid or the pcDNA3.1 plasmid without an insert was used. For experiments involving RAMPs, 0.125 μg of receptor DNA and 0.125 μg of RAMP‐containing plasmid DNA were transfected to give a 1:1 ratio of receptor to RAMP. Where the RAMP or receptor were transfected alone, the ratio of DNA was made up with the pcDNA3.1 plasmid.
cAMP accumulation in Cos7 cells transfected with hCRF1α or hCRF2α receptors was measured using the LANCE cAMP detection assay kit (PerkinElmer Life and Analytical Sciences) as described previously. ^30 Briefly, culture media was removed and replaced with DMEM containing 0.1% bovine albumin serum (BSA) and 1 mmol/L 3‐isobutyl‐1‐methylxanthine (IBMX) for 30 minutes at 37°C. Cells were incubated for an additional 15 minutes at 37°C with media or agonist concentrations of 1 pmol/L to 1 µmol/L for agonist only assays or 10 pmol/L to 10 µmol/L concentrations for antagonist experiments. Antagonists were added simultaneously or immediately prior to the addition of agonists. To stop cell stimulation and extract cAMP, the contents of the wells were replaced with 50 µL absolute ethanol. Samples were left at −20°C for a minimum of 10 minutes. The ethanol was evaporated and replaced with 50 µL of cAMP detection buffer. Samples were shaken for 15 minutes before 5 µL cell lysate was transferred to a white 384‐well optiplate and processed for cAMP quantification as described previously. ^31 Samples were read using an Envision plate reader (PerkinElmer). cAMP concentrations were determined from a standard curve generated in duplicate.
In all experiments the position of peptides and antagonists (pharmacology) or transfected receptors (ELISAs) on assay plates was randomized during each independent experiment, which are independent biological replicates. In all cases, duplicate, triplicate, or quadruplicate technical replicates were conducted for each independent experiment.

| Substance | EC50 (CRF1 receptor (hCRF1α); pERK1/2, hCRF1α, Cos7, 7 min at 37°C, 1 pmol/L to 1 µmol/L agonist, mean ± SEM, n = 5) [nM] | EC50 (CRF2 receptor (hCRF2α); cAMP, hCRF2α, Cos7, 15 min at 37°C, 1 mmol/L IBMX, 1 pmol/L to 1 µmol/L agonist, mean ± SEM, n = 5) [nM] | concentration‐dependent increase in pERK1/2 (CRF1 receptor (hCRF1α); CRF1 receptor) | concentration‐dependent increase in cAMP (CRF2 receptor (hCRF2α); CRF2 receptor) | ΔΔlog(τ/K A) (signaling bias) (CRF2 receptor (hCRF2α); cAMP (reference pathway), hCRF2α, reference agonist UCN1, mean ± SEM, n = 5) | Hill slope (CRF2 receptor (hCRF2α); cAMP, CRF2 receptor) | Δlog(τ/K A) (relative efficacy) (CRF2 receptor (hCRF2α); cAMP, hCRF2α, reference agonist UCN1, mean ± SEM, n = 5) |
| --- | --- | --- | --- | --- | --- | --- | --- |
| DNPSLSIDLTFHLLRTLLELARTQSQRERAEQNRIIFDSV-NH2 [UCN1] | 22.9 | 0.0955 |  |  |  |  |  |
| IVLSLDVPIGLLQILLEQARARAAREQATTNARILARVGHC-NH2 (C-terminus assumed) [UCN2] |  |  | not UCN2 and UCN3 exhibited a concentration‐dependent increase | concentration‐dependent increases | 0.00 ± 0.27 | not significantly different from one | −0.55 ± 0.19 |
